This test deals with NFκB. The experiment in a line: NFκB subcellular distribution (cell fractionation, immunoblot), ECS cells. It counts as cell-based, human. The note with it: 8 day spheroids, 20 μM, 48 h. How it is done:
In (A), it is shown that ECS cells have reduced NFκB-p65 levels. SCC-13 cells (40,000) were grown in spheroid medium in attached (monolayer) and non-attached (spheroid, ECS cells) conditions. Lysates were prepared after 10 d in culture for electrophoresis and detection of indicated epitopes. In (B). […] and SCC13-TG2-shRNA2 cells were grown in spheroid medium as monolayers. After 10 d in culture, lysates were collected for detection of TG2 and NFκB-p65. In (C), SCC-13 cells were electroporated with control-, NFκB-p65- or TG2-siRNA and then cultured as monolayers in spheroid medium. After 72 h extracts were prepared to assay TG2, NFκB-p65 and EMT markers. In (D), SCC-13 cells were electroporated with empty vector Control- or TG2-siRNA and plated in monolayer culture. The following day cells were fixed, permeabilized and incubated with antibodies specific for the indicated epitopes. […] In (E), an equal number of cell equivalents of total (T), nuclear (N), and cytosolic (C) extract, prepared from SCC13-Control-shRNA and SCC13-TG2-shRNA2 (TG2 knockdown) cells, was electrophoresed for immunoblot detection of NFκB, histone 3 (nuclear marker) and β-actin (cytoplasmic marker). […] In (F), total (T), nuclear (N), and cytosolic (C) extract was prepared from 8 day spheroids (ECS cells) treated with 0 or 20 μM NC9 for 48 h. […]
(In general: In western blotting, separated proteins are transferred to a membrane and probed.)

`C=CC(=O)NCCCC[C@H](NC(=O)OCc1ccccc1)C(=O)NCCOCCOCCNS(=O)(=O)c1cccc2c(N(C)C)cccc12` [NC9]: the “cytoplasmic/nuclear distribution of NFκB” value is recorded as “not altered”.

The record behind these values is patent US10894777B2, “TG2 inhibitor piperazine compounds and uses thereof” (UNIVERSITY OF OTTAWA, priority 2016, dated 2021).
